For the first data set, the target named is T1, fVIIa/TF (Homo sapiens, UniProt P08709).
T1 construct: Single-chain fVII may be converted to two-chain fVIIa by factor Xa, factor XIIa, factor IXa, fVIIa or thrombin in vitro
T1 sequence (P08709 213-466 limits assumed): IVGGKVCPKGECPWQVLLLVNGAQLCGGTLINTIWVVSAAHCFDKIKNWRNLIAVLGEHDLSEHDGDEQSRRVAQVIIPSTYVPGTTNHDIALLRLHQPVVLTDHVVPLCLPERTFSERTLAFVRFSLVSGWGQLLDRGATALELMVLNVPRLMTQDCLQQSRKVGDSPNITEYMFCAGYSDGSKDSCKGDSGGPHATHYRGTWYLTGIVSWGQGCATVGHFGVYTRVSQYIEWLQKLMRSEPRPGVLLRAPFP
T1 sequence (P08709 61-212 limits assumed): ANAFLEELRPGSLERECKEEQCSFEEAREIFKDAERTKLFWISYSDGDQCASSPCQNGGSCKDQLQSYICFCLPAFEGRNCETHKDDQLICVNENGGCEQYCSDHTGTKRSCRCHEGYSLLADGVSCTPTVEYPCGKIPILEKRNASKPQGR
T1 sequence (P13726 33-295 partner): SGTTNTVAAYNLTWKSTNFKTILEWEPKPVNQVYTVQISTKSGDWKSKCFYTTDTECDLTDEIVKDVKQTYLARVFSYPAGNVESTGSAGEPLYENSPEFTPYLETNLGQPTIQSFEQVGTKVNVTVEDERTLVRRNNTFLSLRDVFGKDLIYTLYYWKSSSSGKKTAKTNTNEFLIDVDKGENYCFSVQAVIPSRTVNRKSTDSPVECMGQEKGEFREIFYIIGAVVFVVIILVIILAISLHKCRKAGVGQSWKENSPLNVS
In words: fX activation assay. The data set is classed as biochemical. To be noted: 100 pM fVIIa, 5 pM TF, 175 nM fX, 5-min incubation, S-2765 substrate, read-out: IC50 TF/FVII/FX. As for the experimental part: Inhibitory Compounds are Identified in a fX Activation Assay:
The compounds are dissolved in DMSO and mixed with a solution of fVIIa in Ca^2 +-containing buffer (1+5). 30 μl of this mixture was then mixed with 45 μl TF (relipidated in PC/PS vesicles) and 25 μl of a solution containing fX, all in Ca^2 +-containing buffer. This gives final concentrations of 100 pM fVIIa, 5 pM TF, 175 nM fX and various concentrations of the compounds. After a 5-min incubation, the fVIIa/TF-catalyzed activation of fX is terminated by the addition of 50 μl buffer containing enough EDTA to give an excess over the Ca^2+ ions present. 50 μl of a 2-mM solution of S-2765 (fXa substrate) is then added and the fXa formed is allowed to hydrolyze the substrate for 10 minutes during which the absorbance at 405 nm is continuously monitored in a SPECTRAmax™ 340 plate reader. The slope of the absorption curve is compared to that of a control where DMSO alone was added to fVIIa/TF/fX.
IC50 TF/FVII/FX: The IC50 value in μM found from the FX activation assay
Regarding `Cc1cccc(-c2nc3ccccc3c(=O)o2)c1` [Example 13, 2-m-Tolyl-4H-3,1-benzoxazin-4-one], the IC50 came out at 600 nM. On the same count and under the same terms, then `Cc1ccc2nc(-c3c(F)cccc3Cl)oc(=O)c2c1` [Example 41, 2-(2-Chloro-6-fluorophenyl)-6-methyl-4H-3,1-benzoxazin-4-one], with 900 nM. The same measure, in the same setting: with `COc1ccc(Br)c(-c2nc3ccccc3c(=O)o2)c1` [Example 43, 2-(2-Bromo-5-methoxy-phenyl)-4H-3,1-benzoxazin-4-one] the figure was 1100 nM.

For the compound `COC(=O)c1cccc2nc(-c3ccccc3F)oc(=O)c12` [Example 75, 2-(2-Fluoro-phenyl)-4-oxo-4H-benzo[d][1,3]oxazine-5-carboxylic acid methyl ester], the IC50 worked out at 5600 nM.

With `O=c1oc(-c2ccccc2[N+](=O)[O-])nc2cccc([N+](=O)[O-])c12` [Example 83, 5-Nitro-2-(2-nitro-phenyl)-benzo[d][1,3]oxazin-4-one], the IC50 turned out to be 320 nM.

Take `O=c1oc(-c2cccnc2Cl)nc2cccc([N+](=O)[O-])c12` [Example 87, 2-(2-Chloro-pyridin-3-yl)-5-nitro-benzo[d][1,3]oxazin-4-one]: the IC50 came to 2800 nM. Regarding `O=c1oc(-c2ccccc2F)nc2ccc(C(F)(F)F)cc12` [Example 95, 2-(2-Fluoro-phenyl)-6-trifluoromethyl-benzo[d][1,3]oxazin-4-one], the IC50 turned out to be 3100 nM. `O=c1oc(-c2c(F)cccc2F)nc2cccc(Cl)c12` [Example 116, 5-Chloro-2-(2,6-difluoro-phenyl)-benzo[d][1,3]oxazin-4-one]: the IC50 was 170 nM.

System in another data set: not given
Assay: not given
The following applies: blood; cited from earlier work.
Turning to heparin, the half-life result was “approximately 80 minutes”.

The values above are taken from US6180625A, “Heterocyclic compounds regulating clotting” (Novo Nordisk A/S, priority 1998, dated 2001).
